Source: paper PMC12785453, “Oral Fluid Concentrations and Pharmacological Effects of Clephedrone and Methylone in Humans” (International Journal of Molecular Sciences, 2025)
Read-outs that look alike come from different tables or passages of the source.

Assays:
[1] = tested on: MDMA-like discriminative stimulus effects; parameters: method as in PMID 30986635; settings: cited from earlier work
humans = settings: cited from earlier work
[2] = tested on: healthy male participants; assay: Subjective effects, ARCI short form, methylone trial; format: in vivo, humans; settings: 150 or 200 mg oral
Experimental: (§1) Methylone pharmacology was evaluated in a study designed as a randomized, double-blind, placebo-controlled, crossover clinical trial. Four pilot studies were conducted administering methylone at oral doses of 50 (n = 3), 100 (n = 6), 150 (n = 5), and 200 mg (n = 7). Participants attended 3 experimental sessions separated by a one-week wash-out period and received two doses of methylone (one dose per experimental session) compared to placebo, except in the last pilot study in which participants received one dose of methylone, compared to MDMA and placebo. However, in this manuscript, only the results corresponding to the highest methylone doses (n = 12; 150 and 200 mg; mean dose = 179.2 mg) are presented, to enable comparison with clephedrone self-administration. Participants were recruited by word of mouth in the volunteer database of the clinical pharmacology unit.
(§2) Methylone hydrochloride of high purity in powder form was acquired from LGC Standards (Teddington, UK) for the controlled study. The Pharmacy Department of the Hospital Universitari Germans Trias i Pujol was responsible for manufacturing, storing, and dispensing identical and opaque soft gelatin capsules containing 50 mg of methylone or a placebo (maltodextrin). Treatment consisted of 5 capsules that combined methylone and/or a placebo to reach the target dose. Details can be found in the previous article.
Subjective effects were evaluated with visual analog scales (VAS), the short form of the Addiction Research Center Inventory (ARCI), and the Evaluation of Subjective Effects of Substances with Abuse Potential questionnaire (VESSPA-SSE). In addition, the Sensitivity to Drug Reinforcement Questionnaire (SDRQ) and a pharmacological identification class questionnaire were used in the controlled study administering methylone.
The validated ARCI 49-item short form was used to evaluate and discriminate the subjective following five subscales that correspond to different classes of drugs of abuse: pentobarbital-chlorpromazine-alcohol group (PCAG) is susceptible to sedative effects, morphine-benzedrine group (MBG) is susceptible to euphoric effects, lysergic acid diethylamide (LSD) is susceptible to dysphoria and somatic symptoms, benzedrine (BG) is susceptible to intellectual efficiency and energy, and amphetamine (A) is susceptible to amphetamine-like effects.
Participants included in the naturalistic clephedrone study completed VAS at baseline, 0.50, 1, 1.5, 2, 3, 4, and 5 h, and ARCI and VESSPA at baseline, 1, 2, 3, 4, and 5 h after self-administering clephedrone. In the controlled study, VAS was performed at baseline and 0.25, 0.50, 0.75, 1, 1.5, 2, 3, 4, 6, 8, 10, and 24 h, and ARCI and VESSPA at baseline and 1, 2, 3, 4, 6, 8, and 10 h after administering methylone. Participants completed SDRQ and VAS sexual desire and arousal at baseline, 1 and 10 h, and the pharmacological class identification questionnaire at 8 h.
(§3) For statistical analysis, values of physiological (SBP, DBP, HR, and T) and subjective effects (VAS, ARCI, and VESSPA-SSE) were baseline–adjusted. Maximum effects (Emax) and the time needed to reach maximum effects (Tmax) were determined, and the area under the curve up to 5 h (AUC0–5h) for clephedrone and up to 6 h (AUC0–6h) for methylone was calculated using the trapezoidal rule. Emax and AUC values are presented as mean ± standard deviation, whereas Tmax is presented in median (range).
(§4) To find possible significant changes through the time course compared to baseline, a Dunnett multiple comparison test was carried out to compare each time point with baseline in both drug conditions. For clephedrone the comparisons were 0–0.5 h, 0–1 h, 0–1.5 h, 0–2 h, 0–3 h, 0–4 h and 0–5 h, and for methylone this analysis included 0–0.25 h, 0–0.5 h, 0–0.75 h, 0–1 h, 0–1.5 h, 0–2 h, 0–3 h, 0–4 h and 0–6 h. Given their different study designs, no comparative analysis between the time courses of both synthetic cathinones was conducted.

[3] = tested on: healthy male participants; assay: Physiological effects (SBP, DBP, HR, T), controlled methylone pilot clinical trial; format: in vivo, humans
Experimental: as §1
Participants of the naturalistic clephedrone study were summoned at 15:00 h at the private club where sessions were carried out. The club remained closed to the public until the end of the session, approximately at 21:00 h. As a naturalistic study, participants were left free to talk, read, play games, or listen to music in the time between study evaluations. To avoid possible influences between participants, they were asked to refrain from talking about the effects of the self-administered substance. The experimental sessions of the controlled pilot trial were carried out at the Clinical Research Unit (UPIC) of the Germans Trias i Pujol hospital, where participants were summoned at 7:45 a.m. after fasting overnight and remained there for approximately 11 h.
as §2
In the controlled methylone study, vital signs monitors (Philips Sure Signs VM4 monitors, Philips, Amsterdam, The Netherlands) were used to measure SBP, DBP, HR, and oral temperature at baseline (−30 and −15 min) and 0.25, 0.50, 0.75, 1.5, 2, 3, 4, 6, 8, 10, and 24 h after administration. For these evaluations, participants rested in hospital beds in a position of back elevation. Furthermore, electrocardiograms were constantly monitored throughout the sessions for safety reasons.
as §3, §4

[4] = 150 or 200 mg oral, n=12, listed as methylone
[5] = AUC0–6h, 150 or 200 mg oral, n=12

In the case of CNC(C)C(=O)c1ccc(Cl)cc1 (stereo not shown) [Clephedrone, 4-chloromethcathinone], the “Substitution for MDMA in drug discrimination” value ([1]; rodents) is given as “fully substituted for MDMA”.
For CNC(C)C(=O)c1ccc2c(c1)OCO2 (stereo not shown) [Methylone, 3,4-methylenedioxy-N-methylcathinone], the “Persistence of heart rate increases” value (humans; naturalistic and controlled environments) is listed as 8 to 10 h, the “Time of peak effects following self-administration” value (humans; naturalistic conditions) is listed as 2 h and the “Tmax of effects collected using ARCI” value [2] is listed as 1 h. The “ARCI A (amphetamine-like effects) Emax” value ([2]; n=12) was 2.92 ± 1.73 points, the “ARCI BG (intellectual efficiency) Emax” value ([2]; n=12) was 1.50 ± 1.09 points and the “ARCI LSD (dysphoria) Emax” value ([2]; n=12) was “–0.25 ± 1.29 points”. For the same molecule, the “ARCI MBG (euphoria) Emax” value ([2]; n=12) was 5.92 ± 4.68 points, the “ARCI PCAG (sedation) Emax” value ([2]; n=12) was 2.17 ± 3.49 points and the “ARCI A (amphetamine-like effects) AUC0-5/6 h” value ([2]; AUC0–6h, n=12) was 4.33 ± 2.77 points·h. For the same molecule, the “ARCI BG (intellectual efficiency) AUC0-5/6 h” value ([2]; AUC0–6h, n=12) was 0.83 ± 1.81 points·h, the “ARCI LSD (dysphoria) AUC0-5/6 h” value ([2]; AUC0–6h, n=12) was “–0.96 ± 1.81 points·h” and the “ARCI MBG (euphoria) AUC0-5/6 h” value ([2]; AUC0–6h, n=12) was 8.25 ± 6.89 points·h. For the same molecule, the “ARCI PCAG (sedation) AUC0-5/6 h” value ([2]; AUC0–6h, n=12) was 5.46 ± 8.86 points·h, the “Substitution for MDMA in drug discrimination” value ([1]; rats) was > 80% and the “Onset of cardiovascular effects after administration” value ([3]; 150 or 200 mg oral) was 0.5 h. For the same molecule, the “SBP effects returned to baseline” value ([3]; 150 or 200 mg oral) was 3 h, the “DBP Emax” value ([3]; 150 or 200 mg oral, n=12) was 3.75 ± 11.52 mmHg and the “HR Emax” value ([3]; 150 or 200 mg oral, n=12) was 28.75 ± 16.09 bpm. For the same molecule, the “SBP Emax” value ([3]; 150 or 200 mg oral, n=12) was 27.04 ± 10.72 mmHg, the “DBP Emax” value [3, 4] was 3.75 mmHg and the “HR Emax” value [3, 4] was 28.75 bpm. For the same molecule, the “SBP Emax” value [3, 4] was 27.04 mmHg, the “HR AUC0-5/6 h” value [3, 5] was 97.07 ± 69.24 bpm·h and the “SBP AUC0-5/6 h” value [3, 5] was 38.70 ± 26.84 mmHg·h. For the same molecule, the “T AUC0-5/6 h” value ([3]; AUC0–6h, oral temperature, 150 or 200 mg oral, n=12) was 0.88 ± 1.34 °C·h, the “Tolerability, serious adverse events” value ([3]; all administered doses (150 or 200 mg oral)) was “well tolerated” and the “T Emax” value ([3]; oral temperature, 150 or 200 mg oral, n=12) was 0.23 ± 0.34 °C.
